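Results reflect a 48-hour exposure of cells in 96-well plates to compound at five concentrations. GI50 marks 50% less growth. The concentration for full growth arrest is given as TGI.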
Legend:
Experiment in all cases: NCI tumour cell line growth inhibition, 48 h
[1] = tested on: 786-0 renal
[2] = tested on: A498 renal
[3] = tested on: A549 NSCLC
[4] = tested on: ACHN renal
[5] = tested on: CAKI-1 renal
[6] = tested on: CCRF-CEM leukemia
[7] = tested on: COLO 205 colon
[8] = tested on: DU-145 prostate
[9] = tested on: EKVX NSCLC
[10] = tested on: HCC-2998 colon
[11] = tested on: HCT-116 colon
[12] = tested on: HCT-15 colon
[13] = tested on: HL-60(TB) leukemia
[14] = tested on: HOP-62 NSCLC
[15] = tested on: HS 578T breast
[16] = tested on: HT29 colon
[17] = tested on: IGROV1 ovarian
[18] = tested on: K-562 leukemia
[19] = tested on: KM12 colon
[20] = tested on: LOX IMVI melanoma
[21] = tested on: M14 melanoma
[22] = tested on: MALME-3M melanoma
[23] = tested on: MCF7 breast
[24] = tested on: MDA-MB-231 breast
[25] = tested on: MDA-MB-435
[26] = tested on: MDA-N
[27] = tested on: MOLT-4 leukemia
[28] = tested on: NCI-H226 lung
[29] = tested on: NCI-H23 lung
[30] = tested on: NCI-H460 lung
[31] = tested on: NCI-H522 lung
[32] = tested on: NCI/ADR-RES ovarian
[33] = tested on: OVCAR-3 ovarian
[34] = tested on: OVCAR-4 ovarian
[35] = tested on: OVCAR-5 ovarian
[36] = tested on: OVCAR-8 ovarian
[37] = tested on: PC-3 prostate
[38] = tested on: RPMI-8226 leukemia
[39] = tested on: RXF 393 renal
[40] = tested on: SF-268 CNS
[41] = tested on: SF-295 CNS
[42] = tested on: SF-539 CNS
[43] = tested on: SK-MEL-2 melanoma
[44] = tested on: SK-MEL-28 melanoma
[45] = tested on: SK-MEL-5 melanoma
[46] = tested on: SK-OV-3 ovarian
[47] = tested on: SN12C renal
[48] = tested on: SNB-19 CNS
[49] = tested on: SNB-75 CNS
[50] = tested on: SR leukemia
[51] = tested on: SW-620 colon
[52] = tested on: TK-10 renal
[53] = tested on: U251 CNS
[54] = tested on: UACC-257 melanoma
[55] = tested on: UACC-62 melanoma
[56] = tested on: UO-31 renal
[57] = tested on: HOP-92 NSCLC
[58] = tested on: T-47D breast
[59] = tested on: BT-549 breast

Cc1cc(N(C)c2ccccc2)nc(N(C)c2ccccc2)n1
TGI [1]: > 100 µM
TGI [2]: > 100 µM
TGI [3]: > 100 µM
TGI [4]: 95.7 µM
TGI [5]: > 100 µM
TGI [6]: 46.5 µM
TGI [7]: 49.1 µM
TGI [8]: > 100 µM
TGI [9]: > 100 µM
TGI [10]: 79.6 µM
TGI [11]: 37.6 µM
TGI [12]: > 100 µM
TGI [13]: 59.6 µM
TGI [14]: 72.8 µM
TGI [15]: > 100 µM
TGI [16]: 39 µM
TGI [17]: > 100 µM
TGI [18]: > 100 µM
TGI [19]: 45.7 µM
TGI [20]: 27.9 µM
TGI [21]: > 100 µM
TGI [22]: 55.8 µM
TGI [23]: 68.4 µM
TGI [24]: 78.9 µM
TGI [25]: > 100 µM
TGI [26]: > 100 µM
TGI [27]: 99.9 µM
TGI [28]: 96 µM
TGI [29]: > 100 µM
TGI [30]: > 100 µM
TGI [31]: > 100 µM
TGI [32]: > 100 µM
TGI [33]: 70.4 µM
TGI [34]: > 100 µM
TGI [35]: 52.6 µM
TGI [36]: > 100 µM
TGI [37]: > 100 µM
TGI [38]: 65.1 µM
TGI [39]: 59.5 µM
TGI [40]: > 100 µM
TGI [41]: 92.5 µM
TGI [42]: 66.5 µM
TGI [43]: 36.9 µM
TGI [44]: 98 µM
TGI [45]: 69.1 µM
TGI [46]: > 100 µM
TGI [47]: > 100 µM
TGI [48]: > 100 µM
TGI [49]: > 100 µM
TGI [50]: 55.5 µM
TGI [51]: > 100 µM
TGI [52]: > 100 µM
TGI [53]: > 100 µM
TGI [54]: 57.7 µM
TGI [55]: > 100 µM
TGI [56]: > 100 µM

NC(N)=N/N=C/c1c(-c2ccc([N+](=O)[O-])cc2)nc2sc(Cl)cn12
TGI [1]: 0.605 µM
TGI [2]: 2.77 µM
TGI [3]: 3.09 µM
TGI [4]: 2.42 µM
TGI [5]: 3.76 µM
TGI [6]: 1.14 µM
TGI [7]: 2.06 µM
TGI [9]: 1.53 µM
TGI [11]: 0.575 µM
TGI [14]: 3.11 µM
TGI [57]: 4.05 µM
TGI [15]: > 100 µM
TGI [16]: 3 µM
TGI [19]: 2.4 µM
TGI [22]: 3.63 µM
TGI [25]: 2.33 µM
TGI [26]: 3.12 µM
TGI [29]: 2.69 µM
TGI [32]: 3.45 µM
TGI [34]: 0.954 µM
TGI [35]: 2.69 µM
TGI [37]: 2.04 µM
TGI [38]: 4 µM
TGI [39]: 3.8 µM
TGI [40]: 3.31 µM
TGI [42]: 4.01 µM
TGI [43]: 3.2 µM
TGI [44]: 3.38 µM
TGI [45]: 3.6 µM
TGI [46]: 3.31 µM
TGI [47]: 3.05 µM
TGI [49]: 1.3 µM
TGI [51]: 1.46 µM
TGI [58]: > 100 µM
TGI [52]: 3.69 µM
TGI [54]: 1.41 µM
TGI [55]: 3.01 µM
TGI [56]: 2.68 µM

CCOC(=O)C(Cc1ccccc1)n1c(O)c(/C=N/c2ncc(Cc3ccc(Cl)cc3Cl)s2)sc1=S (stereo not drawn)
GI50 [1]: 3.15 µM
TGI [1]: > 100 µM
GI50 [2]: 1.58 µM
TGI [2]: 7.64 µM
GI50 [3]: 3.68 µM
TGI [3]: > 100 µM
GI50 [4]: 2.92 µM
TGI [4]: > 100 µM
GI50 [59]: 2.37 µM
TGI [59]: 8.23 µM
GI50 [5]: 1.71 µM
TGI [5]: > 100 µM
GI50 [6]: 1.87 µM
TGI [6]: > 100 µM
GI50 [7]: 1.66 µM
TGI [7]: 3.34 µM
GI50 [8]: 3.9 µM
TGI [8]: > 100 µM
GI50 [9]: 2.07 µM
TGI [9]: > 100 µM
GI50 [10]: 2.54 µM
TGI [10]: 42.3 µM
GI50 [11]: 2.03 µM
TGI [11]: 11.5 µM
GI50 [12]: 0.548 µM
TGI [12]: > 100 µM
GI50 [13]: 2.29 µM
TGI [13]: 7.06 µM
GI50 [14]: 2.69 µM
TGI [14]: 8.12 µM
GI50 [57]: 1.65 µM
TGI [57]: 6.22 µM
GI50 [15]: 3.62 µM
TGI [15]: 41.1 µM
GI50 [16]: 2.24 µM
TGI [16]: 7.7 µM
GI50 [17]: 3.73 µM
TGI [17]: 71.5 µM
GI50 [18]: 2.03 µM
TGI [18]: > 100 µM
GI50 [19]: 1.84 µM
TGI [19]: 11.6 µM
GI50 [20]: 3.44 µM
TGI [20]: 16.5 µM
GI50 [21]: 3.02 µM
TGI [21]: 16.7 µM
GI50 [22]: 2.77 µM
TGI [22]: 9.25 µM
GI50 [23]: 2.36 µM
TGI [23]: > 100 µM
GI50 [24]: 3.88 µM
TGI [24]: 21.4 µM
GI50 [25]: 3.38 µM
TGI [25]: > 100 µM
GI50 [27]: 3.29 µM
TGI [27]: > 100 µM
GI50 [28]: 3.29 µM
TGI [28]: > 100 µM
GI50 [29]: 1.9 µM
TGI [29]: 12.4 µM
GI50 [30]: 2.09 µM
TGI [30]: 12.4 µM
GI50 [31]: 1.31 µM
TGI [31]: 5.7 µM
GI50 [32]: 2.56 µM
TGI [32]: 15.1 µM
GI50 [33]: 2.84 µM
TGI [33]: 9.96 µM
GI50 [34]: 3.22 µM
TGI [34]: > 100 µM
GI50 [35]: 4.2 µM
TGI [35]: > 100 µM
GI50 [36]: 2.07 µM
TGI [36]: > 100 µM
GI50 [37]: 2.08 µM
TGI [37]: > 100 µM
GI50 [38]: 2.12 µM
TGI [38]: > 100 µM
GI50 [39]: 2.56 µM
TGI [39]: 6.7 µM
GI50 [40]: 2.42 µM
TGI [40]: 64.8 µM
GI50 [41]: 2.31 µM
TGI [41]: 6.84 µM
GI50 [42]: 2.58 µM
TGI [42]: 6.95 µM
GI50 [43]: 1.31 µM
TGI [43]: 5.68 µM
GI50 [44]: 2.61 µM
TGI [44]: 26.4 µM
GI50 [45]: 1.52 µM
TGI [45]: 4.13 µM
GI50 [46]: 2.38 µM
TGI [46]: 11.8 µM
GI50 [47]: 1.59 µM
TGI [47]: > 100 µM
GI50 [48]: 5.05 µM
TGI [48]: > 100 µM
GI50 [49]: 2.81 µM
TGI [49]: 21.4 µM
GI50 [50]: 3.98 µM
TGI [50]: > 100 µM
GI50 [51]: 3.45 µM
TGI [51]: > 100 µM
GI50 [58]: 2.16 µM
TGI [58]: 8.73 µM
GI50 [53]: 2.51 µM
TGI [53]: 15 µM
GI50 [54]: 2.72 µM
TGI [54]: 8.57 µM
GI50 [55]: 1.63 µM
TGI [55]: 6.37 µM
GI50 [56]: 1.97 µM
TGI [56]: 5.31 µM

— PubChem BioAssay (NCI)
